Literature values as cited in US12642772B2, “Triptolide formulations” (MINNEAMRITA THERAPEUTICS LLC, priority 2024, dated 2026).

- solubility in water: approximately 0.017 mg/mL
Compound: CC(C)[C@]12O[C@H]1[C@@H]1O[C@]13[C@]1(O[C@H]1C[C@H]1C4=C(CC[C@@]13C)C(=O)OC4)[C@@H]2O [triptolide, Triptolide]
